Target: T1, human orexin type 2 receptor (Homo sapiens, UniProt O43614)
T1 construct: expressed in transfected cells
T1 sequence (O43614 1-444): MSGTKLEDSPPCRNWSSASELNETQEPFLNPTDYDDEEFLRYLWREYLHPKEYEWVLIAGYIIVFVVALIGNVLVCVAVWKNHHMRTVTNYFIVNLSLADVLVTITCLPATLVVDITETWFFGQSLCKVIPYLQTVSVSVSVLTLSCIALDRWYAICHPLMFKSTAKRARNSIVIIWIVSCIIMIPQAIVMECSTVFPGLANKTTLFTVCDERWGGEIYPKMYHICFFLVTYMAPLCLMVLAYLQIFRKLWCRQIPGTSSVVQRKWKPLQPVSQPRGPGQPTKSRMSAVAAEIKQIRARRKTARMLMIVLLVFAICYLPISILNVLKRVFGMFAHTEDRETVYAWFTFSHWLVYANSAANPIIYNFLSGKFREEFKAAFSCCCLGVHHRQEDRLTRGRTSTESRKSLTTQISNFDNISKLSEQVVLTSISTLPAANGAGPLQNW
Assay: Measurement of orexin type 2 receptor agonist activity (calcium indicator fluorescence, CHO cells forcibly expressing human OX2 receptor)
Type: cell-based
Conditions: compound at 3 μM; 0% = DMSO, 100% = orexin A (human) 10 nM
Text: To obtain a cell clone stably expressing human orexin type 2 receptor, human orexin type 2 receptor cDNA was inserted into pcDNA3.1(+) plasmid vector (Invitrogen), and a plasmid DNA for expression of human orexin type 2 receptor (pcDNA3.1(+)/hOX2R) was cloned. The plasmid DNA was introduced into CHO-dhfr cell by an electroporation method, and human orexin type 2 receptor expressing clone cells were obtained by limiting dilution method by using G418 drug resistance as a selection marker.
CHO cells forcibly expressing human OX2 receptor were seeded in each well of 384 well black transparent bottom plate (BD Falcon) at 7,500 cells/well, and cultured for one day in a 5% CO2 incubator at 37° C. After removal of the medium in the cell plate, assay buffer A containing a calcium indicator (HBSS (Thermo Fisher Scientific), 20 mM HEPES (Thermo Fisher Scientific), 0.1% BSA (Sigma-Aldrich), 2.5 μg/mL Fluo-4 AM (DOJINDO Chemical), 0.08% Pluronic F127 (DOJINDO Chemical), 1.25 mM probenecid (DOJINDO Chemical)) was added at 30 μL/well. The plate was stood for 30 min in a 5% CO2 incubator at 37° C., and further stood at room temperature for 30 min. A test compound prepared by diluting with assay buffer B (HBSS, 20 mM HEPES, 0.1% BSA) was added at 10 μL/well, and the fluorescence value was measured by FDSSμCELL (Hamamatsu Photonics K.K.) every one sec for 1 min, and thereafter every two sec for […]. The activity (%) of the test compound was calculated assuming that variation in the fluorescence value when DMSO was added instead of the test compound was 0%, and variation in the fluorescence value when orexin A (human) (PEPTIDE INSTITUTE, INC.) was added at the final concentration of 10 nM was 100%.

Row | SMILES | OX2R agonist activity (3 μM, %) [%]
1 | CCS(=O)(=O)N[C@H]1[C@@H](F)CN(C(=O)C2CCO2)[C@H]1Cc1cccc(-c2cccc(C)c2)c1F (stereo partly drawn) [Example 498, N-[(2S,3R,4S)-4-fluoro-2-[(2-fluoro-3′-methyl[1,1′-biphenyl]-3-yl)methyl]-1-(oxetane-2-carbonyl)pyrrolidin-3-yl]ethanesulfonamide] | 99
2 | CCS(=O)(=O)N[C@@H]1[C@H](Cc2cccc(-c3cccc(C)c3)c2F)N(C(=O)C2(O)CCC2)CC1(F)F [Example 275, N-[(2S,3R)-4,4-difluoro-2-[(2-fluoro-3′-methyl[1,1′-biphenyl]-3-yl)methyl]-1-(1-hydroxycyclobutane-1-carbonyl)pyrrolidin-3-yl]ethanesulfonamide] | 85
3 | CCS(=O)(=O)N[C@H]1[C@@H](F)CN(C(=O)C2CC2)[C@H]1Cc1cccc(-c2cccc(Cl)c2F)c1F [Example 520, N-[(2S,3R,4S)-2-[(3′-chloro-2,2′-difluoro[1,1′-biphenyl]-3-yl)methyl]-1-(cyclopropanecarbonyl)-4-fluoropyrrolidin-3-yl]ethanesulfonamide] | 94
4 | CCS(=O)(=O)N[C@H]1[C@@H](F)CN(C(=O)C(C)C)[C@H]1Cc1cccc(-c2cccc(Cl)c2)c1F [Example 298, N-[(2S,3R,4S)-2-[(3′-chloro-2-fluoro[1,1′-biphenyl]-3-yl)methyl]-4-fluoro-1-(2-methylpropanoyl)pyrrolidin-3-yl]ethanesulfonamide] | 96
5 | CCS(=O)(=O)N[C@@H]1[C@H](Cc2cccc(-c3cccc(C)c3F)c2F)N(C(=O)N2CCC2)CC1(F)F [Example 291, N-{(2S,3R)-1-(azetidine-1-carbonyl)-2-[(2,2′-difluoro-3′-methyl[1,1′-biphenyl]-3-yl)methyl]-4,4-difluoropyrrolidin-3-yl}ethanesulfonamide] | 90
6 | CCS(=O)(=O)N[C@@H]1[C@H](Cc2cccc(-c3ccccc3)c2F)N(C(=O)[C@H]2C[C@H](F)C2)CC1(F)F [Example 378, N-[(2S,3R)-4,4-difluoro-2-[(2-fluoro[1,1′-biphenyl]-3-yl)methyl]-1-((1r,3S)-3-fluorocyclobutane-1-carbonyl)pyrrolidin-3-yl]ethanesulfonamide] | 106
7 | CS(=O)(=O)N[C@@H]1[C@H](Cc2cccc(-c3cc(F)ccc3F)c2F)N(C(=O)C2CC(F)C2)CC1(F)F (stereo partly drawn) [Example 437, N-{(2S,3R)-4,4-difluoro-1-(3-fluorocyclobutane-1-carbonyl)-2-[(2,2′,5′-trifluoro[1,1′-biphenyl]-3-yl)methyl]pyrrolidin-3-yl}methanesulfonamide] | 84
8 | CCS(=O)(=O)N[C@@H]1[C@H](Cc2cccc(-c3cc(F)cc(F)c3)c2)N(C(=O)C(C)C)CC1(F)F [Example 116, N-[(2S,3R)-2-[(3′,5′-difluoro[1,1′-biphenyl]-3-yl)methyl]-4,4-difluoro-1-(2-methylpropanoyl)pyrrolidin-3-yl]ethanesulfonamide] | 86
9 | CCS(=O)(=O)N[C@@H]1[C@H](Cc2cccc(-c3cccc(OC)c3)c2F)N(C(=O)C2(O)CCC2)CC1(F)F [Example 513, N-[(2S,3R)-4,4-difluoro-2-[(2-fluoro-3′-methoxy[1,1′-biphenyl]-3-yl)methyl]-1-(1-hydroxycyclobutane-1-carbonyl)pyrrolidin-3-yl]ethanesulfonamide] | 97
10 | O=C(C1CCO1)N1C[C@H](F)[C@H](NS(=O)(=O)C2CC2)[C@@H]1Cc1cccc(-c2cc(F)ccc2F)c1F (stereo partly drawn) [Example 481, N-{(2S,3R,4S)-4-fluoro-1-(oxetane-2-carbonyl)-2-[(2,2′,5′-trifluoro[1,1′-biphenyl]-3-yl)methyl]pyrrolidin-3-yl}cyclopropanesulfonamide] | 104

Other lines, results leading:

Row | OX2R agonist activity (3 μM, %) [%] | SMILES
11 | 92 | CC(C)(O)C(=O)N1C[C@H](F)[C@H](NS(C)(=O)=O)[C@@H]1Cc1cccc(-c2cc(F)cc(Cl)c2)c1F [Example 391, N-[(2S,3R,4S)-2-[(3′-chloro-2,5′-difluoro[1,1′-biphenyl]-3-yl)methyl]-4-fluoro-1-(2-hydroxy-2-methylpropanoyl)pyrrolidin-3-yl]methanesulfonamide]
12 | 95 | Cc1cccc(-c2cccc(C[C@H]3[C@@H](NS(=O)(=O)N(C)C)C(F)(F)CN3C(=O)N(C)C)c2F)c1F [Example 531, (2S,3R)-2-[(2,2′-difluoro-3′-methyl[1,1′-biphenyl]-3-yl)methyl]-3-[(dimethylsulfamoyl)amino]-4,4-difluoro-N,N-dimethylpyrrolidine-1-carboxamide]
13 | 88 | Cc1cc(F)cc(-c2cccc(C[C@H]3[C@@H](NS(=O)(=O)C4CC4)[C@@H](F)CN3C(=O)C3CCO3)c2F)c1 (stereo partly drawn) [Example 486, N-[(2S,3R,4S)-2-[(2,3′-difluoro-5′-methyl[1,1′-biphenyl]-3-yl)methyl]-4-fluoro-1-(oxetane-2-carbonyl)pyrrolidin-3-yl]cyclopropanesulfonamide]
14 | 98 | CS(=O)(=O)N[C@@H]1[C@H](Cc2cccc(-c3ccccc3)c2F)N(C(=O)C2(O)CCC2)CC1(F)F [Example 76, N-[(2S,3R)-4,4-difluoro-2-[(2-fluoro[1,1′-biphenyl]-3-yl)methyl]-1-(1-hydroxycyclobutane-1-carbonyl)pyrrolidin-3-yl]methanesulfonamide]
15 | 98 | CCS(=O)(=O)N[C@H]1[C@@H](F)CN(C(=O)C2(O)CCC2)[C@H]1Cc1cccc(-c2cccc(C)c2)c1F [Example 536, N-[(2S,3R,4S)-4-fluoro-2-[(2-fluoro-3′-methyl[1,1′-biphenyl]-3-yl)methyl]-1-(1-hydroxycyclobutane-1-carbonyl)pyrrolidin-3-yl]ethanesulfonamide]
16 | 92 | CCS(=O)(=O)N[C@@H]1[C@H](Cc2cccc(-c3cccc(C)c3)c2F)N(C(=O)N(C)C)CC1(F)F [Example 284, (2S,3R)-3-[(ethanesulfonyl)amino]-4,4-difluoro-2-[(2-fluoro-3′-methyl[1,1′-biphenyl]-3-yl)methyl]-N,N-dimethylpyrrolidine-1-carboxamide]
17 | 93 | O=C(C1CC1)N1C[C@H](F)[C@H](NS(=O)(=O)C2CC2)[C@@H]1Cc1cccc(-c2cc(F)ccc2F)c1F [Example 379, N-{(2S,3R,4S)-1-(cyclopropanecarbonyl)-4-fluoro-2-[(2,2′,5′-trifluoro[1,1′-biphenyl]-3-yl)methyl]pyrrolidin-3-yl}cycloproapnesulfonamide]
18 | 98 | CC(C)(O)C(=O)N1CC(F)(F)[C@H](NS(C)(=O)=O)[C@@H]1Cc1cccc(-c2cccc(Cl)c2)c1F [Example 44, N-[(2S,3R)-2-[(3′-chloro-2-fluoro[1,1′-biphenyl]-3-yl)methyl]-4,4-difluoro-1-(2-hydroxy-2-methylpropanoyl)pyrrolidin-3-yl]methanesulfonamide]
19 | 84 | CCS(=O)(=O)N[C@@H]1[C@H](Cc2cccc(-c3cc(F)cc(F)c3)c2F)N(C(=O)[C@H]2CCCO2)CC1(F)F [Example 454, N-{(2S,3R)-4,4-difluoro-1-[(2R)-oxolane-2-carbonyl]-2-[(2,3′,5′-trifluoro[1,1′-biphenyl]-3-yl)methyl]pyrrolidin-3-yl}ethanesulfonamide]
20 | 85 | O=C(N1CCC1)N1CC(F)(F)[C@H](NS(=O)(=O)C2CC2)[C@@H]1Cc1cccc(-c2cc(F)cc(F)c2)c1F [Example 525, N-{(2S,3R)-1-(azetidine-1-carbonyl)-4,4-difluoro-2-[(2,3′,5′-trifluoro[1,1′-biphenyl]-3-yl)methyl]pyrrolidin-3-yl]cyclopropanesulfonamide]
21 | 99 | CS(=O)(=O)N[C@@H]1[C@H](Cc2cccc(-c3cc(F)cc(F)c3)c2F)N(C(=O)[C@@H]2CCO2)CC1(F)F [Example 92, N-{(2S,3R)-4,4-difluoro-1-((2S)-oxetane-2-carbonyl)-2-[(2,3′,5′-trifluoro[1,1′-biphenyl]-3-yl)methyl]pyrrolidin-3-yl}methanesulfonamide]

Reference: patent US20230040770A1, “HETEROCYCLIC COMPOUND AND USE THEREOF” (TAKEDA PHARMACEUTICAL COMPANY LIMITED, priority 2019, published 2023)
